Source: ChEMBL document CHEMBL1143039, “Further modification on phenyl acetic acid based quinolines as liver X receptor modulators” (Bioorg Med Chem, 2007)

Legend:
[1] = target: T1, Oxysterols receptor LXR-beta (Homo sapiens, UniProt P55055); experiment: biochemical
T1 sequence (P55055 whole entry): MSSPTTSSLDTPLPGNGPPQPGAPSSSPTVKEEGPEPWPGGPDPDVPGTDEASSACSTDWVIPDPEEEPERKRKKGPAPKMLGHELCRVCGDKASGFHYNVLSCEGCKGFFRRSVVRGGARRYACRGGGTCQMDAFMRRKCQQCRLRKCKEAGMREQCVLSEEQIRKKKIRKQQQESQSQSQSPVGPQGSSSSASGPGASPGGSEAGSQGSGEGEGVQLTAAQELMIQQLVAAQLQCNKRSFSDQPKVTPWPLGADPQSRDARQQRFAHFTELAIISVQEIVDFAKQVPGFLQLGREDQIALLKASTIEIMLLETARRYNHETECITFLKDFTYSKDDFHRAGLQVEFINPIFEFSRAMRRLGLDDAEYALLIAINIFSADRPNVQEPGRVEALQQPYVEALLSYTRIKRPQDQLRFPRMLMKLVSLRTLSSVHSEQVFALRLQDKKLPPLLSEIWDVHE
Description: Displacement of [3H]T0901317 from human recombinant LXRbeta expressed in CHO cells

[2] = target: T2, Oxysterols receptor LXR-alpha (Homo sapiens, UniProt Q13133); experiment: biochemical
T2 sequence (Q13133 whole entry): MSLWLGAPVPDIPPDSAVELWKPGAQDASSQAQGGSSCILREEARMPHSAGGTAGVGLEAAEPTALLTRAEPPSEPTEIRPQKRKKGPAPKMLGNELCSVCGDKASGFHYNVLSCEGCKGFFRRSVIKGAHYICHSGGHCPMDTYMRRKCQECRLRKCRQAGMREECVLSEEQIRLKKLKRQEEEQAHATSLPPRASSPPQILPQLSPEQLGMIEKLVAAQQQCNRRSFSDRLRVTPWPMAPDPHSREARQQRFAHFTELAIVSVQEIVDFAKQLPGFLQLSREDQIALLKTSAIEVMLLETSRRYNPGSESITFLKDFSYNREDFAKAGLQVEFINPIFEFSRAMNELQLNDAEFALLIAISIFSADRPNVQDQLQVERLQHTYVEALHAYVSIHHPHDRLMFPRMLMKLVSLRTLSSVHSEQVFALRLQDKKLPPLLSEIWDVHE
Description: Displacement of [3H]T-0901317 from human recombinant LXRalpha expressed in CHO cells

[3] = Half life in C57BL/6 mouse at 10 mg/kg, po; assay type: ADME, organism-based; design: dose 10 mg/kg, route oral; details: in vivo
Huh-7 [4] = experiment: Increase in SREBP1c gene expression in Huh7 cells relative to TO901317; assay type: functional, Homo sapiens
[5] = target: T2, Oxysterols receptor LXR-alpha; experiment: Agonist activity at human recombinant LXRalpha expressed in Huh7 cells by GAL4 transactivation assay; assay type: functional, cell-based, Huh-7
[6] = target: T3, Peroxisome proliferator-activated receptor alpha (Homo sapiens, UniProt Q07869); experiment: Agonist activity at human recombinant PPARalpha by GAL4 transactivation assay; assay type: functional
T3 sequence (Q07869 whole entry): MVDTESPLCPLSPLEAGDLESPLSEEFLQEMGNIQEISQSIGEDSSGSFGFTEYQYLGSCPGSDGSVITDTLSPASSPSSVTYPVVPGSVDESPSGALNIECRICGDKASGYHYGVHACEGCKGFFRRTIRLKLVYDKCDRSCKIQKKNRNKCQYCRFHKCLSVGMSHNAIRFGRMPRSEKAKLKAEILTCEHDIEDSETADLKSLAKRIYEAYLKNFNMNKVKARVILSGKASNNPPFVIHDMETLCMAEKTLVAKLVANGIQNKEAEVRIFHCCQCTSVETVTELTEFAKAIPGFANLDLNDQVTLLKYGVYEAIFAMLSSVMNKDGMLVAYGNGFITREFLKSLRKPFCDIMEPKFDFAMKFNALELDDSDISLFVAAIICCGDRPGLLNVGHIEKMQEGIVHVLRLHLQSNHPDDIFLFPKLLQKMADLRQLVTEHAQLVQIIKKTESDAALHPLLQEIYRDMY

[7] = Cmax in C57BL/6 mouse at 10 mg/kg, po; assay type: ADME, organism-based; design: dose 10 mg/kg, route oral; details: in vivo
THP-1 [8] = experiment: Increase in ABCA1 gene expression in THP1 cells relative to TO901317; assay type: functional, Homo sapiens
[9] = target: T4, Oxysterols receptor LXR-alpha (Homo sapiens) (UniProt Q13133); experiment: Agonist activity at human recombinant LXRalpha expressed in Huh7 cells by GAL4 transactivation assay relative to TO901317; assay type: functional, cell-based; details: Huh-7
T4 sequence (whole entry): T2 sequence (Q13133 whole entry)

[10] = target: T1, Oxysterols receptor LXR-beta
Description: Agonist activity at human recombinant LXRbeta expressed in CHO cells

Mus musculus [11] = experiment: Increase in plasma triglyceride level in C57BL/6 ApoE knockout mouse at 10 mg/kg, po for 12 weeks; assay type: functional
[12] = AUC (infinity) in C57BL/6 mouse at 10 mg/kg, po; assay type: ADME, organism-based; design: time infinity, dose 10 mg/kg, route oral; details: plasma
[13] = Half life in C57BL/6 mouse at 1 mg/kg, iv; assay type: ADME, organism-based; design: dose 1 mg/kg, route intravenous; details: in vivo
[14] = Volume of distribution in C57BL/6 mouse at 1 mg/kg, iv; assay type: ADME, organism-based; design: dose 1 mg/kg, route intravenous; details: in vivo, read-out: Vss
[15] = target: T5, Peroxisome proliferator-activated receptor gamma (Homo sapiens) (UniProt P37231); experiment: Agonist activity at human recombinant PPARgamma by GAL4 transactivation assay relative to rosiglitazone; assay type: functional
T5 sequence (whole entry): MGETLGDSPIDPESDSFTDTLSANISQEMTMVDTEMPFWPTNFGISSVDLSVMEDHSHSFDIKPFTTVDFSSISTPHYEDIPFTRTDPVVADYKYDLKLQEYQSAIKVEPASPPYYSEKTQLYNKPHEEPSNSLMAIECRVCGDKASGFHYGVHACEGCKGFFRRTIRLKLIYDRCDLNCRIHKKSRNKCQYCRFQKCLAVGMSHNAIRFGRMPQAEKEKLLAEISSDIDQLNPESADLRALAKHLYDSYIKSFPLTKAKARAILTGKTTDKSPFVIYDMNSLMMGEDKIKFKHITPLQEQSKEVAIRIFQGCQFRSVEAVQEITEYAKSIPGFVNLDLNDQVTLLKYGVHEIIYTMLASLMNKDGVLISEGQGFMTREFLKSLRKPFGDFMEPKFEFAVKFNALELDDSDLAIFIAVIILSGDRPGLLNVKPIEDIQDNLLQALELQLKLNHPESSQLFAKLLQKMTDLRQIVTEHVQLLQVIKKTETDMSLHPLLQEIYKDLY

[16] = Stability in mouse liver microsomes; assay type: ADME, Microsome
Huh-7 [17] = experiment: Increase in SREBP1c gene expression in Huh7 cells; assay type: functional, cell-based; details: Homo sapiens
[18] = target: T6, Peroxisome proliferator-activated receptor gamma (Homo sapiens, UniProt P37231); experiment: Agonist activity at human recombinant PPARgamma by GAL4 transactivation assay; assay type: functional
T6 sequence (P37231 whole entry): T5 sequence (whole entry)

[19] = target: T1, Oxysterols receptor LXR-beta; experiment: Agonist activity at human recombinant LXRbeta expressed in Huh7 cells by GAL4 transactivation assay; assay type: functional, cell-based, Huh-7
[20] = Tmax in C57BL/6 mouse at 10 mg/kg, po; assay type: ADME, organism-based; design: dose 10 mg/kg, route oral; details: in vivo
Mus musculus [21] = experiment: Reduction of aortic arch lesion in C57BL/6 ApoE knockout mouse at 10 mg/kg, po for 12 weeks; assay type: functional, Pharyngeal arch artery; design: scale not given: the % may be the effect or the level left
Mus musculus [22] = experiment: Reduction in aortic arch lesion area in C57BL/6 ApoE knockout mouse at 10 mg/kg, po for 12 weeks; assay type: functional, Pharyngeal arch artery
THP-1 [23] = experiment: Increase in ABCA1 gene expression in THP1 cells; assay type: functional, cell-based; details: Homo sapiens
[24] = target: T7, Peroxisome proliferator-activated receptor alpha (Homo sapiens) (UniProt Q07869); experiment: Agonist activity at human recombinant PPARalpha by GAL4 transactivation assay relative to WY-14643; assay type: functional
T7 sequence (whole entry): T3 sequence (Q07869 whole entry)

Liver microsomes = experiment: Stability in human liver microsomes; assay type: ADME, Microsome
[25] = Bioavailability in C57BL/6 mouse at 10 mg/kg, po; assay type: ADME, organism-based; details: in vivo
[26] = target: T8, Oxysterols receptor LXR-beta (Homo sapiens) (UniProt P55055); experiment: Agonist activity at human recombinant LXRbeta expressed in Huh7 cells by GAL4 transactivation assay relative to TO901317; assay type: functional, cell-based; details: Huh-7
T8 sequence (whole entry): T1 sequence (P55055 whole entry)

[27] = Clearance in C57BL/6 mouse at 1 mg/kg, iv; assay type: ADME, organism-based; design: dose 1 mg/kg, route intravenous; details: in vivo
[28] = target: T9, Peroxisome proliferator-activated receptor delta (Homo sapiens, UniProt Q03181); experiment: Agonist activity at human recombinant PPARdelta by GAL4 transactivation assay; assay type: functional
T9 sequence (Q03181 whole entry): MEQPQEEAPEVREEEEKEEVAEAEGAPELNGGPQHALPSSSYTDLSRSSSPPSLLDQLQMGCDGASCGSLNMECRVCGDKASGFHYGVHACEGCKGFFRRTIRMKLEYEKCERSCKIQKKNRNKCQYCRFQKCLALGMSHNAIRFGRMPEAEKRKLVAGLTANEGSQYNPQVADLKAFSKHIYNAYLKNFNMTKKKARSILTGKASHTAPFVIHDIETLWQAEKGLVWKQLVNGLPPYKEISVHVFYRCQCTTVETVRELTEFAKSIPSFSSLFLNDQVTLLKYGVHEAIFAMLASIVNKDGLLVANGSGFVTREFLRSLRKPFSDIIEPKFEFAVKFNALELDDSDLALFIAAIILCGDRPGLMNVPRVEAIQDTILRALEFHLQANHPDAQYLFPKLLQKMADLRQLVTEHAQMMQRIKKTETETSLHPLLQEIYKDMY

Structure (SMILES) | IC50 [1] [nM] | IC50 [2] [nM] | half-life [3] [h] | Activity (Huh-7 [4]) [%] | EC50 [5] [nM] | EC50 [6] [nM] | Cmax [7] [ng/mL] | Activity (THP-1 [8]) [%] | Activity [9] [%] | EC50 [10] [nM] | Activity (Mus musculus [11]) [mg/dL] | AUC(0-inf) [12] [ng·h/mL] | half-life [13] [h] | Vd [14] [L/kg] | Activity [15] [%] | Stability [16] | EC50 (Huh-7 [17]) [nM] | EC50 [18] [nM] | Activity (Mus musculus [21]) [%] | aortic arch lesion area (Mus musculus [22]) [%] | also measured
Cc1cccc2c(-c3cccc(NCc4ccc(CC(=O)O)cc4)c3)c(Cc3ccccc3)cnc12 | 5 | 21 | 1.2 | 114 | 467 | 1770 | 4190 | 139 | 101 | 90 | 15.2 | 3580 | 1.6 | 1.2 | 46.6 | Stable | 51.4 | 1030 | 57 | 4.09 | EC50 [19]: 267 nM; Tmax [20]: 0.25 h; EC50 (THP-1 [23]): 438 nM; Activity [24]: 7.5%; Stability (Liver microsomes): Stable; bioavailability [25]: 53%; Activity [26]: 75%; clearance [27]: 25 mL/min/kg; EC50 [28]: 1970 nM
O=C(O)Cc1ccc(CNc2cccc(-c3c(Cc4ccccc4)cnc4c(Cl)cccc34)c2)cc1 | 1.4 | 5 | 1.2 | 137 | 121 | 2050 | 2500 | 162 | 89 | 23 | 64.56 | 2580 | 1.8 | 1.8 | 50.6 | Stable | 75 | 506 | 53 | 4.47 | EC50 [19]: 54 nM; Tmax [20]: 0.25 h; EC50 (THP-1 [23]): 81 nM; Activity [24]: 12%; Stability (Liver microsomes): Stable; bioavailability [25]: 57%; Activity [26]: 67%; clearance [27]: 37 mL/min/kg; EC50 [28]: 631 nM
O=C(O)Cc1cccc(OCCCN(Cc2cccc(C(F)(F)F)c2Cl)CC(c2ccccc2)c2ccccc2)c1 | – | – | – | – | – | – | – | – | – | – | 2.95 | – | – | – | – | – | – | – | 79 | 1.99 | –

The next lines start with results.

IC50 [1] [nM] | IC50 [2] [nM] | Structure (SMILES) | half-life [3] [h] | Activity (Huh-7 [4]) [%] | EC50 [5] [nM] | EC50 [6] [nM] | Cmax [7] [ng/mL] | Activity (THP-1 [8]) [%] | Activity [9] [%] | EC50 [10] [nM] | Activity (Mus musculus [11]) [mg/dL] | AUC(0-inf) [12] [ng·h/mL] | half-life [13] [h] | Vd [14] [L/kg] | Activity [15] [%] | Stability [16] | EC50 (Huh-7 [17]) [nM] | EC50 [18] [nM] | Activity (Mus musculus [21]) [%] | aortic arch lesion area (Mus musculus [22]) [%] | also measured
> 10000 | > 10000 | NC(=O)c1cnc2c(C(F)(F)F)cccc2c1-c1cccc(NCc2ccc(CC(=O)O)cc2)c1 | – | – | – | – | – | – | – | – | – | – | – | – | – | – | – | – | – | – | –
> 10000 | > 10000 | O=C(O)/C=C/c1ccc(CNc2cccc(-c3c(C(=O)c4ccccc4)cnc4c(C(F)(F)F)cccc34)c2)cc1 | – | – | – | – | – | – | – | – | – | – | – | – | – | – | – | – | – | – | –
